# Molecular target: T1, P2X4 receptor (Homo sapiens, UniProt Q99571)
# T1 construct: expressed in transfected cells; host or cells: 1321N1 astrocytoma cells, retroviral vector pQCXIN, G418 selection, monoclones
# T1 sequence (Q99571 1-388): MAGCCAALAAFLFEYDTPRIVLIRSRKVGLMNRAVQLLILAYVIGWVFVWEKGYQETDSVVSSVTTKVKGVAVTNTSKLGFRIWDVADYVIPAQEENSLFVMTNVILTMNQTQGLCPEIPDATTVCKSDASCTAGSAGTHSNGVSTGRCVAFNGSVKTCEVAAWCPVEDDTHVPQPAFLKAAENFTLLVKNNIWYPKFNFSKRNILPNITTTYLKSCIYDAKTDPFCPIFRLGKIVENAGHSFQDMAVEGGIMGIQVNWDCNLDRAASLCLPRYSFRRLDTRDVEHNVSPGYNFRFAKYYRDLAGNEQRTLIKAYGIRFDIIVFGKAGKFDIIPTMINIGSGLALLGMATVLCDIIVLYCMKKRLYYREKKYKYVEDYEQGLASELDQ
# Assay: Measurement of Ca2+ influx in transfected 1321N1 astrocytoma cells (P2X4 inhibitory potency)
# Assay type: cell-based
# Conditions: agonist-mediated Ca2+ influx, FLUO-4, 1321N1 astrocytoma cells; antagonists added 30 min before agonist
# Excerpt: The rat, mouse, and human P2X4 DNA, respectively, were cloned into the retroviral vector pQCXIN. 1321N1 Astrocytoma cells were transfected with the DNA using a retroviral system as described previously. In brief, GP+envAM12 packaging cells were first transiently co-transfected with a retroviral vector to generate the retrovirus and with a vesicular stomatitis virus G protein (VSV-G) to pseudotype the virus and to increase their infection efficiency. The viruses containing the rat, mouse or human P2X4 receptor sequence were then used to create a stable astrocytoma cell line. P2X4 receptor-expressing cells were selected with G418 ([…]).
# The selection of monoclones for rat and human P2X4 receptors was performed using the limited dilution method by plating the cells at very low cell densities (1 cell clone per well in 96-well plates). Cells were counted, and then several dilutions were made to obtain a concentration of […]. We subsequently added 100 µL of the diluted cell suspension into each well expecting to obtain on average 1 cell per well. After a few days the wells that contained single clones were labeled and transferred into 24 well plates. More than 20 clones were selected for each cell line and characterized in calcium influx assay.
# Measurement of Ca^2+ influx in transfected 1321N1 astrocytoma cells
# P2X receptor function was determined on the basis of agonist-mediated increases in cytosolic Ca^2+ concentration. The fluorescent Ca^2+chelating dye FLUO-4 was used as an indicator of the relative levels of intracellular Ca^2+ in a 96-well format using a fluorescence imaging plate reader (Novostar, BMG, Germany). Cells were grown to confluence in 96-well black-walled tissue culture plates and loaded with FLUO-4 AM ([…]) in Hank's balanced salt solution (HBSS, containing 10 mM HEPES, pH 7.3, and 1% Pluronic® F127) for 1 h at 23° C. After incubation, the loaded cells were washed with the same buffer to remove extracellular FLUO-4 AM. Compound solutions were prepared in HBSS (containing 20 mM HEPES, pH 7.3) or DMSO depending on their solubility. […] Fluorescence intensity was measured at 520 nm for 30 s at 0.4 s intervals. Buffer or test compounds were injected sequentially into separate wells using the automatic pipetting device. At least three independent experiments were performed in triplicate or duplicate. Antagonists were added 30 min before the addition of agonists. The assays were performed in a final volume of 200 μL. Compounds were tested at 7-8 different concentrations spanning three orders of magnitude of concentrations. Statistical significances were calculated using the unpaired two-tailed t-test.
row,Compound,IC50
1,"2-((2-methyl-5-(3-methyl- 1,2,4-oxadiazol-5-yl) phenyl)amino)-1-(1H- pyrrolo[2,3-b]pyridin-3- yl)ethan-1-one [Example 107]",70 to 99 nM
2,"Cc1nsc(-c2ccc(C)c(NCC(=O)N3CCc4c3cccc4C(C)(O)CO)c2)n1 (racemic) [Example 62, 1-(4-(1,2-dihydroxypropan-2-yl)indolin-1-yl)-2-((2-methyl-5-(3-methyl-1,2,4-thiadiazol-5-yl)phenyl)amino)ethan-1-one]",0.1 to 19 nM
3,"Cc1nsc(-c2cc(NCC(=O)N3CCc4c3cc(Br)cc4[C@@](C)(O)CO)c(C)cc2Br)n1 (stereo in doubt) [Example 123, 2-((4-bromo-2-methyl-5-(3-methyl-1,2,4-thiadiazol-5-yl)phenyl)amino)-1-(6-bromo-4-(1,2-dihydroxypropan-2-yl)indolin-1-yl)ethan-1-one]",> 100 nM
4,"COc1cccc2c1CCN2C(=O)CNc1cc(-c2nc(C)ns2)ccc1C [Example 1, 1-(4-methoxyindolin-1-yl)-2-((2-methyl-5-(3-methyl-1,2,4-thiadiazol-5-yl)phenyl)-amino)ethan-1-one]",0.1 to 19 nM
5,"COc1cccc2c1CCN2C(=O)CNc1cc(-c2nc(C)no2)ccc1C [Example 2, 1-(4-methoxyindolin-1-yl)-2-((2-methyl-5-(3-methyl-1,2,4-oxadiazol-5-yl)phenyl)-amino)ethan-1-one]",0.1 to 19 nM
6,"CCc1noc(-c2ccc(F)c(NCC(=O)N3CCc4cc(OC)c(F)cc43)c2)n1 [Example 3, 2-((5-(3-ethyl-1,2,4-oxadiazol-5-yl)-2-fluorophenyl)amino)-1-(6-fluoro-5-methoxyindolin-1-yl)ethan-1-one]",20 to 39 nM
7,"COc1ccc(-c2nc(C)ns2)cc1NCC(=O)N1CCc2c(OC)cccc21 [Example 4, 2-((2-methoxy-5-(3-methyl-1,2,4-thiadiazol-5-yl)phenyl)-amino)-1-(4-methoxyindolin-1-yl)ethan-1-one]",20 to 39 nM
8,"CCn1nnc(-c2ccc(OC)c(NCC(=O)N3CCc4c(OC)cccc43)c2)n1 [Example 5, 2-((5-(2-ethyl-2H-tetrazol-5-yl)-2-methoxyphenyl)amino)-1-(4-methoxyindolin-1-yl)ethan-1-one]",20 to 39 nM
9,"COc1ccc(-c2nc(C)ns2)cc1NCC(=O)n1ccc2cc(F)ccc21 [Example 6, 1-(5-fluoro-1H-indol-1-yl)-2-((2-methoxy-5-(3-methyl-1,2,4-thiadiazol-5-yl)phenyl)amino-) ethan-1-one]",70 to 99 nM
10,"CCc1noc(-c2ccc(OC)c(NCC(=O)N3CCc4ccc(C(F)(F)F)cc43)c2)n1 [Example 7, 2-(5-(3-ethyl-1,2,4-oxadiazol-5-yl)-2-methoxyphenylamino)-1-(6-(trifluoromethyl)indolin-1-yl)ethanone]",> 100 nM
11,"COc1cccc2c1CCN2C(=O)CNc1cc(-c2nc(C)ns2)cc(F)c1OC [Example 8, 2-((3-fluoro-2-methoxy-5-(3-methyl-1,2,4-thiadiazol-5-yl)phenyl)amino)-1-(4-methoxyindolin-1-yl) ethan-1-one]",70 to 99 nM
12,"CCc1noc(-c2ccc(OC)c(NCC(=O)N3CCc4ccc(Br)cc43)c2)n1 [Example 9, 1-(6-bromoindolin-1-yl)-2-((5-(3-ethyl-1,2,4-oxadiazol-5-yl)-2-methoxyphenyl)amino) ethan-1-one]",40 to 69 nM
13,"Cc1nsc(-c2ccc(C)c(NCC(=O)N3CCc4nc(Cl)ccc43)c2)n1 [Example 10, 1-(5-chloro-2,3-dihydro-1H-pyrrolo[3,2-b]pyridin-1-yl)-2-((2-methyl-5-(3-methyl-1,2,4-thiadiazol-5-yl)phenyl)amino)ethan-1-one]",70 to 99 nM
14,"CCc1noc(-c2ccc(OC)c(NCC(=O)N3CCc4nc(OC)ccc43)c2)n1 [Example 11, 2-((5-(3-ethyl-1,2,4-oxadiazol-5-yl)-2-methoxyphenyl)amino)-1-(5-methoxy-2,3-dihydro-1H-pyrrolo[3,2-b]pyridin-1-yl)ethan-1-one]",20 to 39 nM
15,"Cc1nsc(-c2ccc(C)c(NCC(=O)N3CCc4c(OCC(C)(C)O)cccc43)c2)n1 [Example 12, 1-(4-(2-hydroxy-2-methylpropoxy)indolin-1-yl)-2-((2-methyl-5-(3-methyl-1,2,4-thiadiazol-5-yl)phenyl)amino)]",0.1 to 19 nM
16,"Cc1nsc(-c2ccc(C)c(NCC(=O)N3CCc4c3cccc4N3C(=O)CCS3(=O)=O)c2)n1 [Example 13, 2-(1-((2-methyl-5-(3-methyl-1,2,4-thiadiazol-5-yl)phenyl)glycyl)indolin-4-yl) isothiazolidin-3-one 1,1-dioxide]",0.1 to 19 nM
17,Cc1ccc(-c2nc(Br)ns2)cc1NCC(=O)N1CCc2c(OCC(C)(C)O)cccc21 [Example 14],0.1 to 19 nM
18,"C#Cc1nsc(-c2ccc(C)c(NCC(=O)N3CCc4c(OC)cccc43)c2)n1 [Example 15, 2-((5-(3-ethynyl-1,2,4-thiadiazol-5-yl)-2-methylphenyl)amino)-1-(4-methoxyindolin-1-yl)ethan-1-one]",0.1 to 19 nM
19,"Cc1nsc(-c2ccc(C)c(NCC(=O)N3CCc4c(OCCCO)cccc43)c2)n1 [Example 16, 1-(4-(3-hydroxypropoxy)indolin-1-yl)-2-((2-methyl-5-(3-methyl-1,2,4-thiadiazol-5-yl)phenyl)amino) ethan-1-one]",0.1 to 19 nM
20,"Cc1nsc(-c2ccc(C)c(NCC(=O)N3CCc4c3cccc4N3C(=O)CCC3=O)c2)n1 [Example 17, 1-(1-((2-methyl-5-(3-methyl-1,2,4-thiadiazol-5-yl)phenyl)glycyl)indolin-4-yl) pyrrolidine-2,5-dione]",0.1 to 19 nM
21,"C=Cc1nsc(-c2ccc(C)c(NCC(=O)N3CCc4c(OCCOCCO)cccc43)c2)n1 [Example 18, 1-(4-(2-(2-hydroxyethoxy)ethoxy)indolin-1-yl)-2-((2-methyl-5-(3-vinyl-1,2,4-thiadiazol-5-yl)phenyl)amino) ethan-1-one]",0.1 to 19 nM
22,"CCc1nsc(-c2ccc(C)c(NCC(=O)N3CCc4c(OCCOCCO)cccc43)c2)n1 [Example 19, 2-((5-(3-ethyl-1,2,4-thiadiazol-5-yl)-2-methylphenyl)amino)-1-(4-(2-(2-hydroxyethoxy)ethoxy)indolin-1-yl)ethan-1-one]",0.1 to 19 nM
23,"CCc1nsc(-c2ccc(C)c(NCC(=O)N3CCc4c(NS(C)(=O)=O)cccc43)c2)n1 [Example 20, N-(1-((5-(3-ethyl-1,2,4-thiadiazol-5-yl)-2-methylphenyl)glycyl)indolin-4-yl) methanesulfonamide]",0.1 to 19 nM
24,"CCc1nsc(-c2ccc(F)c(NCC(=O)N3CCc4c(C(C)O)cccc43)c2)n1 (stereo not shown) [Example 21, 2-((5-(3-ethyl-1,2,4-thiadiazol-5-yl)-2-fluorophenyl)amino)-1-(4-(1-hydroxyethyl)indolin-1-yl)ethan-1-one]",0.1 to 19 nM
25,"Cc1nsc(-c2ccc(C)c(NCC(=O)N3CCc4c3cccc4C(C)(C)O)c2)n1 [Example 22, 1-(4-(2-hydroxypropan-2-yl)indolin-1-yl)-2-((2-methyl-5-(3-methyl-1,2,4-thiadiazol-5-yl)phenyl)amino)ethan-1-one]",0.1 to 19 nM
26,"Cc1nsc(-c2ccc(C)c(NCC(=O)N3CCc4c(N5CCC6(CC5)COC6)cccc43)c2)n1 [Example 23, 1-(4-(2-oxa-7-azaspiro[3.5]nonan-7-yl)indolin-1-yl)-2-((2-methyl-5-(3-methyl-1,2,4-thiadiazol-5-yl)phenyl)-amino)ethan-1-one]",0.1 to 19 nM
27,"Cc1nsc(-c2ccc(N3CCCC3)c(NCC(=O)N3CCc4c(OCC(C)(C)O)cccc43)c2)n1 [Example 24, 1-(4-(2-hydroxy-2-methylpropoxy)indolin-1-yl)-2-((5-(3-methyl-1,2,4-thiadiazol-5-yl)-2-(pyrrolidin-1-yl)phenyl)-amino)ethan-1-one]",0.1 to 19 nM
28,"Cc1noc(-c2ccc(C)c(NCC(=O)N3CCc4c(N5CCC(O)C5)cccc43)c2)n1 (stereo not shown) [Example 25, 1-(4-(3-hydroxy-pyrrolidin-1-yl)indolin-1-yl)-2-((2-methyl-5-(3-methyl-1,2,4-oxadiazol-5-yl)phenyl)amino)ethan-1-one]",0.1 to 19 nM
